Assay [1] has as its system brain level of homovanillic acid (HVA). As to the kind of experiment: Effect of drug compounds on brain level of homovanillic acid (HVA) in rats. Type of assay: in vivo, male Long Evans rats. To be noted: brains (minus cerebella) removed two or three hours later, control = 1. As for the experimental part: In testing for the effectiveness of the present drug compounds on the brain level of homovanillic acid (HVA), the drugs were administered intraperitoneally to male Long Evans rats (Simonsen) usually as aqueous solutions but in certain cases as suspensions in 0.5% methocel in 0.9% saline. The standard testing dose was […] body weight. The test and control groups consisted of 3-5 and 5 animals, respectively. The analyses were performed on brains (minus cerebella) removed two or three hours later. In the analyses, standard extraction and fluorimetric methods were used.
Antipsychotic agents increase the synthesis and release of dopamine which is converted to HVA. The HVA level is therefore a measure of dopamine release.

The test system of assay [2] is methamphetamine-induced hyperactivity. Nature of the assay: Rat methamphetamine antagonism test. The format is in vivo, Male, Long-Evans, black hooded rats. The conditions noted are these: for ED50: Rattus norvegicus; for % Change From Placebo Control: methamphetamine 1 mg/kg i.p. one hour later. As for the experimental part: The second test for identifying potential antipsychotic properties was the rat methamphetamine antagonism test.
[…] Three rats were tested at each dose level. Placebo controls received a volume dose of the 0.5% carboxymethylcellulose vehicle. One hour after drug administration, the animals received methamphetamine at an intraperitoneal dose of 1 mg/kg and were placed in individual test chambers equipped with photocells (Lehigh Valley, Model 1497). Antagonism of methamphetamine-induced hyperactivity was recorded as digital counts received from the photocells at one and two hour intervals.
The drug data were compared to placebo control values to identify statistically significant differences using a one-way analysis of variance computer program. ED50's were calculated by the method of Litchfield and Wilcoxin (J. Pharmacol. Exper. Therap.: 96:99, 1949).

Where [3] appears, read: Dose 0.15 (moles/kg body weight), intraperitoneal.
Where [4] appears, read: oral, calculated by the method of Litchfield and Wilcoxin, read-out: ED50.

Read-outs that look alike come from different tables or passages of the source. Where only a bound is given, the exact number is not on record here.

Data on seven compounds can be found in US4226877A, “Pyrazoles active in the central nervous system” (Abbott Laboratories, priority 1979, dated 1980).

Consider `CN(C)CCCN1c2ccccc2Sc2ccc(Cl)cc21` [Chlorpromazine, reference compound], for which, in assay [1] (Dose 0.03, intraperitoneal), the “HVA Level; Compound : Control Ratio” value is 3.9. Besides, the 50% effect level in assay [2] (po) (ED50) was put at a dose of 15 mg/kg. The “% Change From Placebo Control” value in assay [2] (oral dose 5 mg/kg) is “+10%”; in assay [2] (oral dose 10 mg/kg) it was -40%; in assay [2] (oral dose 20 mg/kg), -74%.

As for `CCN1CCCC1CNC(=O)c1c(C)nn(C)c1OC` (centres unmarked) [I, N-[(1-ethyl-2-pyrrolidinyl)methyl]-5-methoxy-1,3-dimethylpyrazole-4-carboxamide], the “HVA Level; Compound : Control Ratio” value in assay [1] (setting [3]) is given as 4.0. For the same compound, the ED50 (as a rule, the midpoint of the dose-response relation) in assay [2] (setting [4]) was 44 mg/kg. In addition, the “% Change From Placebo Control” value in assay [2] (oral dose 5 mg/kg) is reported as -9%; in assay [2] (oral dose 20 mg/kg), -35%; in assay [2] (oral dose 80 mg/kg) it was -60%.

Consider `CCN1CCCC1CNC(=O)c1c(C)nn(C(C)C)c1OC` (centres unmarked) [II, N-[(1-Ethyl-2-pyrrolidinyl)methyl]-1-isopropyl-5-methoxy-3-methylpyrazole-4-carboxamide], for which the “HVA Level; Compound : Control Ratio” value in assay [1] (setting [3]) is 1.8. Also, the 50% effective dose (ED50) in assay [2] (setting [4]) was greater than 80 mg/kg. For the same compound, the figures for the “% Change From Placebo Control” value in assay [2] (oral dose 5 mg/kg), in assay [2] (oral dose 20 mg/kg) and in assay [2] (oral dose 80 mg/kg) were -16%, -13% and -16%, respectively.

For the compound `CCN1CCCC1CNC(=O)c1c(C(C)C)nn(C)c1OC` (centres unmarked) [III, N[(1-Ethyl-2-pyrrolidinyl)methyl]-3-isopropyl-5-methoxy-1-methylpyrazole 4-carboxamide], the “HVA Level; Compound : Control Ratio” value in assay [1] (setting [3]) turned out to be 1.0. The ED50 in assay [2] (setting [4]) is greater than 80 mg/kg. The figures for the “% Change From Placebo Control” value in assay [2] (oral dose 5 mg/kg), in assay [2] (oral dose 20 mg/kg) and in assay [2] (oral dose 80 mg/kg) were -31%, -33% and -12%, respectively.

Regarding `CCN1CCCC1CNC(=O)c1c(C)nn(C(C)C)c1O` (centres unmarked) [IV], the “HVA Level; Compound : Control Ratio” value in assay [1] (setting [3]) came out at 2.2. In assay [2] (setting [4]), the median effective dose (ED50) is greater than 80 mg/kg. The “% Change From Placebo Control” value is “+35%” in assay [2] (oral dose 5 mg/kg), “+28%” in assay [2] (oral dose 20 mg/kg) and -18% in assay [2] (oral dose 80 mg/kg).

Take `CCN1CCCC1CNC(=O)c1cc(S(N)(=O)=O)ccc1OC` (centres unmarked) [Sulpiride, reference compound]: the “HVA Level; Compound : Control Ratio” value in assay [1] (setting [3]) is reported as 3.0. Moreover, the ED50 in assay [2] (setting [4]) was greater than 80 mg/kg. The “% Change From Placebo Control” value in assay [2] (oral dose 5 mg/kg) is reported as “+27%”; in assay [2] (oral dose 20 mg/kg), “+21%”; in assay [2] (oral dose 80 mg/kg), 0%.

Turning to `CCN1CCCC1CNC(=O)c1c(C)nn(-c2ccccc2)c1OC` (centres unmarked) [V, N-[(1-Ethyl-2-pyrrolidinyl)methyl]-5-methoxy-3-methyl-1-phenyl pyrazole-4-carboxamide], in assay [1] (setting [3]), the “HVA Level; Compound : Control Ratio” value is recorded as 3.3. Also, in assay [2] (setting [4]), the ED50 was 23.5 mg/kg. For the same compound, the “% Change From Placebo Control” value in assay [2] (oral dose 5 mg/kg) is reported as -23%; in assay [2] (oral dose 20 mg/kg), -32%; in assay [2] (oral dose 80 mg/kg), -81%.
